Experimental data published in publication PMC12257394, “Design, Synthesis, and Biological Evaluation of Ferrocenyl–Cyclo-(Gly‑L‑Pro) Hybrids Sensitizing Multidrug-Resistant Cancer Cells to Anticancer Agents” (ACS Medicinal Chemistry Letters, 2025).

How the values were obtained:
[1] = Neutral red uptake viability assay, SW620; type: cell-based, human; settings: human, SW620 colon cancer cells; SW620, 72 h, n = 3; read-out: Cytotoxic activity IC50 (95% CI)
Protocol: (§1) To evaluate this aspect, we investigated the viability of SW620 colon cancer cells and their multidrug-resistant variants (overexpressing ABCB1, ABCC1, and ABCG2) exposed to 1 and 10 μM 4a–e using a neutral red uptake assay (Table ). In general, compounds 4a–e exerted little or no cytotoxic effect on either SW620 or multidrug-resistant sublines even at 10 μM, with the remarkable exception of SW620C (cisplatin-selected variant of SW620) cells, which turned out to be relatively susceptible toward ferrocenyl 4a–c. […] This trend may reflect steric or electronic contributions to cellular uptake or interaction with intracellular targets. […] However, since E/Z isomeric data are currently available only for compound 4c, this hypothesis requires validation. To quantify this effect, IC50 values were determined (Table ). […]
(§2) The normal lung fibroblast MRC-5 and colorectal adenocarcinoma SW620 cell lines used in this experiment were purchased from American Type Culture Collection (USA) via LGC […]
(§3) Standards. Multidrug-resistant variants of SW620 cells were developed in our laboratory as described previously.10, 11 All cells were cultured under standard conditions (37°C, 5% CO2, 100% humidity) in high-glucose DMEM supplemented with GlutaMaxTM, HEPES (ThermoFisher Scientific, USA), and 10% fetal bovine serum (EURx, Poland). Cells were routinely tested for potential Mycoplasma contamination using the MycoProbe Mycoplasma Detection kit (R&D System, USA).
(§4) In total, 104 cells in 100 µL of complete medium were plated per well of a 96-well plate and left overnight to allow cells to adhere to the surface. Then, the cells were exposed to a desired concentration of tested compound(s). Stock solutions were prepared in DMSO and used immediately. The final DMSO concentration was constant and nontoxic (0.1% v/v). After 70-h incubation, neutral red was added to the final concentration of 1 mM. After another 2 h, the medium was aspirated, and cells were washed twice with PBS. Dye was released using 100 µL of a solubilizer (1% acetic acid in 50% ethanol) on an orbital shaker (10 min). Absorbance was read at 540 nm using EnVision Multilabel Plate Reader (Perkin Elmer, USA). Results were expressed as % of control. The IC50 parameters were calculated using GraphPad Prism version 10 (GraphPad Software, Boston, Massachusetts USA). […]
(§5) All experiments were performed in triplicate (n = 3).

[2] = Neutral red uptake viability assay, SW620Mito; type: cell-based, human; settings: human, SW620Mito cells (mitoxantrone-resistant), 72 h, n = 3, read-out: Cytotoxic activity IC50 (95% CI)
Protocol: as §1, with “In” for “To evaluate this aspect, we investigated the viability of SW620 colon cancer cells and their multidrug-resistant variants (overexpressing ABCB1, ABCC1, and ABCG2) exposed to 1 and 10 μM 4a–e using a neutral red uptake assay (Table ). In”
as §2, §3, §4, §5

| SMILES | IC50 at 72 h [1] | IC50 at 72 h [2] |
| --- | --- | --- |
| O=C1N/C(=C/c2ccccc2)C(=O)N2CCC[C@@H]12 [(S,E)-4e] | > 100 µM | > 100 µM |
| O=C1N/C(=C\c2ccccc2)C(=O)N2CCC[C@@H]12 [(S,Z)-4e] | > 100 µM | > 100 µM |
